Source: PMC6920844, “Mechanism of Action and Interactions between Thyroid Peroxidase and Lipoxygenase Inhibitors Derived from Plant Sources” (Biomolecules, 2019)
Marks after values point to notes of the source that are not given here.

Tests used:
[1] = ABTS radical scavenging activity (in vitro antioxidant capacity assay)
Protocol: The ABTS radical scavenging activity was determined according to Re et al. [19], with some modifications. A 250 µL ABTS solution was mixed with 10 µL of each pure polyphenols solutions (concentration 50 µg/mL), ethanol extracts, and digested extracts (concentrations: 0.3 mg/mL), and then was measured at the wavelength 724 nm using a UV/Vis spectrophotometer (BioTek, Model Epoch2TC, Winooski, VT, USA) after 15 min of incubation at room temperature. The inhibition percentage of ABTS discoloration was calculated using the fallowing equation:AA = [(Ac − Ap)/(Ac)] × 100%(1) where Ac is the absorbance of control, Ap is the absorbance of pure polyphenols solutions

thyroid peroxidase (TPO) = biological target: T1, thyroid peroxidase (TPO) (Sus scrofa, UniProt P09933); experiment: Thyroid peroxidase inhibitory assay (guaiacol assay, Lineweaver–Burk plot); conditions: for EFC50 (effective concentration inhibiting TPO in 50%) / Ki (TPO) / Vmax (TPO) / Mode of Inhibition (TPO): pure polyphenol solutions; for Mode of Inhibition (TPO): Lineweaver–Burk
T1 sequence (P09933 15-926): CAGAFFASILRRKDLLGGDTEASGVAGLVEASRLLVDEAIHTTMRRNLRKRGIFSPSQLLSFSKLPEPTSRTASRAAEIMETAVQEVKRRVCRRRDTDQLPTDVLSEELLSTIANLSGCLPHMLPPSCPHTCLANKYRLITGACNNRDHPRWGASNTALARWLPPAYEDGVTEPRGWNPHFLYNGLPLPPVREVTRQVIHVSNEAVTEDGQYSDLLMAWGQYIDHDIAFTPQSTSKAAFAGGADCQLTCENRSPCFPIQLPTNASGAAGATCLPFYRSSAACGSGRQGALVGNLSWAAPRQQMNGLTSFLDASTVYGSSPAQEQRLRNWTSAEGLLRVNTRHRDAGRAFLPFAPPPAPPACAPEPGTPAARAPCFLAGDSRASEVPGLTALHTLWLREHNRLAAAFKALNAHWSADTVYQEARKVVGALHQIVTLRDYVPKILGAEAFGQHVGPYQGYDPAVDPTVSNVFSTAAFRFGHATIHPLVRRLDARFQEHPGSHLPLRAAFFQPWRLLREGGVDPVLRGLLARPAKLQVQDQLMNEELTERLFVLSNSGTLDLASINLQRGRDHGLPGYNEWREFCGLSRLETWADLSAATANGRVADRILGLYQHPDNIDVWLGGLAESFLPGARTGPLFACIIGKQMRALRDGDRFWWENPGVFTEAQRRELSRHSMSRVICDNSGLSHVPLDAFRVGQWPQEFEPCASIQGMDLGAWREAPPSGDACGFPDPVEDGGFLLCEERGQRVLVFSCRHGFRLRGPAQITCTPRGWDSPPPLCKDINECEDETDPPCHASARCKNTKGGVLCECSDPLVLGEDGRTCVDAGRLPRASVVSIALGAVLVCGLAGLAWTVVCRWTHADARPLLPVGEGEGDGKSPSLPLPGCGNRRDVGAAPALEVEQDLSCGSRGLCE

[2] = pure polyphenols, values in text

SMILES | ABTS radical scavenging ability IC50 [1, 2] | EFC50 (effective concentration inhibiting TPO in 50%) (thyroid peroxidase (TPO)) | Ki (TPO) (thyroid peroxidase (TPO)) | Vmax (TPO) (thyroid peroxidase (TPO)) | Mode of Inhibition (TPO) (thyroid peroxidase (TPO)) | ABTS radical scavenging ability IC50 ([1]; pure chemical standards) | IC50 (thyroid peroxidase (TPO)) | Ki (thyroid peroxidase (TPO))
COc1cc(C=CC(=O)O)cc(OC)c1O (stereo in doubt) [Sinapinic acid, sinapinic acid] | 84.33 µg/mL | 25.42 ± 1.13 ^a µg/mL | 45.92 ± 3.22 ^b µg/mL | 149.25 ± 6.26 ^a ΔAU/min | Competitive | – | – | –
O.Oc1cc(O)c2c(c1)O[C@H](c1ccc(O)c(O)c1)[C@@H](O)C2 [Catechin, catechin] | 78.37 µg/mL | 29.76 ± 2.05 ^b µg/mL | 33.42 ± 1.35 ^a µg/mL | 144.93 ± 4.33 ^a ΔAU/min | Competitive | 0.078 ± 0.008 ^a mg/mL | – | –
O=c1cc(-c2ccc(O)cc2)oc2cc(O)cc(O)c12 [Apigenin, apigenin] | 405.93 µg/mL | – | – | 149.25 ± 5.12 ^a ΔAU/min | Uncompetitive | 0.406 ± 0.003 ^c mg/mL | 430 µM | 1250 µM
O=c1c(O)c(-c2ccc(O)cc2)oc2cc(O)cc(O)c12 [Kaempferol, kaempferol] | – | – | – | 192.31 ± 8.34 ^b ΔAU/min | Competitive | 0.337 ± 0.002 ^b mg/mL | 215 µM | 653 µM
